# Measured values reported in patent US7803813B2, “Substituted 2-carbonylamino-6-piperidinaminopyridines and substituted 1-carbonylamino-3-piperidinaminobenzenes as 5-HT1F agonists” (Eli Lilly and Company, priority 2003, dated 2010).
# Counter-ions that a name gives are not always drawn.
# How the values were obtained:
# [1] = tested on: rabbit saphenous vein; assay: Rabbit saphenous vein contraction
# Description: Bend the tips of two 30-gauge stainless steel hypodermic needles into an L-shape and slip them into the lumen of the polyethylene tubing. Gently push vein tissue from the cannula onto the needles. Separate the needles and attach the lower needle with thread to a stationary glass rod and the upper needle with thread to a force transducer (Statham UC-3). Mount the tissues in organ baths containing 10 mL of modified Krebs' solution. Maintain tissue bath solutions at 37° C. and […] […] Apply an initial optimum resting force of 4 grams to the vein tissue. Record isometric contractions as changes in grams of force on a Beckman Dynograph with Statham UC-3 transducers and microscale accessory attachments. […] Flush the bath, allow the tissue to re-equilibrate under a 4 gram force, add test compound and record the force of contraction. Add additional compound to achieve the next concentration in a range of compound concentrations to generate cumulative agonist concentration-response curves for each test compound. Tissues can be used to generate up to two agonist concentration-response curves. […] Two important parameters can be measured with this vasoconstriction assay, saphenous vein contraction (EC50) and maximal contraction as a percentage of the maximal KCl response (%max KCl).
Compound,melting point,other results
CN1CCC(Nc2cccc(NC(=O)c3c(F)cc(F)cc3F)c2)CC1.Cl.Cl,257 °C (dec.),–
CN1CCC(N(C)c2cccc(NC(=O)C3CCCCC3)n2)CC1.Cl,250 to 252 °C,–
CN1CCC(Nc2cccc(NC(=O)c3ccc(F)cc3F)c2)CC1.Cl.Cl,262 °C (dec.),–
Cl.Cl.O=C(Nc1cccc(NC2CCNCC2)c1)c1ccc(F)cc1Cl,255 to 257 °C,–
CNS(=O)(=O)Cc1ccc2[nH]cc(CCN(C)C)c2c1 [sumatriptan],–,corrected vasoconstriction EC50 (EC50 divided by %max KCl) [1]: 10.3 nM; EC50 ([1]; Oryctolagus cuniculus): 660 nM
CN1CCC(N(C)c2cccc(NC(=O)c3c(Cl)cccc3Cl)c2)CC1.Cl,164.2 °C,–
CN1CCC(N(C)c2cc(F)cc(NC(=O)c3sccc3Br)c2)CC1 (as salt: hydrochloric acid salt),175 to 180 °C,–
CN1CCC(Nc2cccc(NC(=O)c3ccccc3OC(F)(F)F)c2)CC1.Cl.Cl,159 to 162 °C,–
CN1CCC(N(C)c2cc(F)cc(NC(=O)c3ccc(F)cc3)c2)CC1 (as salt: hydrochloric acid salt),175 °C,–
C[C@H]1C[C@@H](Nc2cccc(NC(=O)c3ccc(F)cc3Cl)c2)CCN1C.Cl,91 to 94 °C,–
CN1CCC(Nc2cccc(NC(=O)c3ccc(F)cc3Cl)c2)CC1.Cl.Cl,180 °C,–
C[C@@H]1C[C@H](Nc2cccc(NC(=O)c3ccc(F)cc3Cl)c2)CCN1.Cl,182 to 185 °C,–
CN1CCC(Nc2cccc(NC(=O)c3ccc(F)c(F)c3F)n2)CC1.Cl,231.4 °C (dec.),–
CN1CCC(N(C)c2cccc(NC(=O)C3CCC3)n2)CC1.Cl (hydrate or solvate),258 to 260 °C,–
CN1CCC(N(C)c2cccc(NC(=O)c3c(F)cc(F)cc3F)c2)CC1.Cl.Cl,199 to 200 °C,–
CN1CCC(Nc2cccc(NC(=O)c3c(F)cccc3Cl)c2)CC1.Cl.Cl,192 to 194 °C,–
CN1CCC(N(C)c2cccc(NC(=O)c3ccccc3Br)c2)CC1.Cl.Cl,196 to 197 °C,–
CC(C)n1cc(CCN2CCC(N(C)c3cccc(NC(=O)c4ccc(F)cc4)n3)CC2)cn1.Cl,85.8 °C,–
CN1CCC(Nc2cccc(NC(=O)c3ccccc3Cl)c2)CC1.Cl.Cl,206 to 208 °C,–
CN1CCC(N(C)c2cccc(NC(=O)c3ccc(F)cc3)c2)CC1.Cl,76.1 °C,–
CN1CCC(N(C)c2cc(F)cc(NC(=O)c3ccccc3Cl)c2)CC1 (as salt: hydrochloric acid salt) (hydrate or solvate),170 to 175 °C,–
Cc1ccccc1C(=O)Nc1cccc(N(C)C2CCN(C)CC2)c1.Cl,82.4 °C,–
CN1CCC(Nc2cccc(NC(=O)c3c(F)cccc3F)c2)CC1.Cl.Cl,198 °C (dec.),–
C[C@@H]1C[C@H](Nc2cccc(NC(=O)c3ccc(F)cc3Cl)c2)CCN1C.Cl,159 to 162 °C,–
CN(c1cccc(NC(=O)c2ccc(F)cc2)n1)C1CCNCC1.Cl,152.4 °C,–
CN1CCC(Nc2cccc(NC(=O)c3ccccc3Br)c2)CC1.Cl.Cl,192 to 193 °C,–
C[C@H]1C[C@@H](Nc2cccc(NC(=O)c3ccc(F)cc3Cl)c2)CCN1.Cl,202 °C (dec.),–
CN1CCC(N(C(=O)C2CC2)c2cccc(NC(=O)c3ccc(F)cc3Cl)c2)CC1.Cl,133 to 136 °C,–
CN1CCC(N(C)c2cccc(NC(=O)c3c(F)cccc3Cl)c2)CC1.Cl.Cl,214 to 217 °C,–

# The next lines start with results.
melting point,Compound,other results
274 to 277 °C,CN1CCC(N(C)c2cccc(NC(=O)c3ccncc3)n2)CC1.Cl (hydrate or solvate),–
116 to 119 °C,CN1CCC(N(C)c2cccc(NC(=O)c3ccco3)n2)CC1.Cl (hydrate or solvate),–
175 °C,CN1CCC(N(C)c2cc(F)cc(NC(=O)c3ccc(F)cc3F)c2)CC1 (as salt: hydrochloric acid salt),–
75.6 °C,CCN1CCC(N(C)c2cccc(NC(=O)c3ccc(F)cc3)n2)CC1.Cl,–
126 to 128 °C,CN1CCC(N(C)c2cccc(NC(=O)c3cccs3)n2)CC1.Cl,–
84.5 °C,CN1CCC(N(C)c2cccc(NC(=O)c3ccccc3C(F)(F)F)c2)CC1.Cl,–
90 to 92 °C,CN1CCC(N(C)c2cccc(NC(=O)c3ccccc3Cl)n2)CC1.Cl (hydrate or solvate),–
216 to 218 °C,CCC(=O)Nc1cccc(N(C)C2CCN(C)CC2)n1.Cl (hydrate or solvate),–
84.9 °C,CN1CCC(Nc2cccc(NC(=O)c3ccc(F)cc3C(F)(F)F)n2)CC1.Cl,–
283 to 286 °C,CN1CCC(N(C)c2cccc(NC(=O)c3c(F)cccc3Cl)n2)CC1.Cl (hydrate or solvate),–
250 to 252 °C,CN1CCC(N(C)c2cccc(NC(=O)c3ccc(F)cc3)n2)CC1.Cl (hydrate or solvate),–
100 to 102 °C,CN1CCC(N(C)c2cccc(NC(=O)c3ccc(F)cc3C(F)(F)F)n2)CC1.Cl (hydrate or solvate),–
257.5 °C,CN(c1cccc(NC(=O)c2ccc(F)cc2Cl)n1)C1CCN(CC2CC2)CC1.Cl,–
258 °C (dec.),CCCN1CCC(N(C)c2cccc(NC(=O)c3ccc(F)cc3Cl)n2)CC1.Cl,–
172 °C,CN1CCC(N(C)c2cccc(NC(=O)c3ccc(F)cc3Cl)c2)CC1.Cl.Cl,–
229 to 231 °C,CN1CCC(N(C)c2cccc(NC(=O)c3ccc(F)cc3Cl)n2)CC1.Cl (hydrate or solvate),–
81.6 °C,CN(c1cccc(NC(=O)c2ccc(F)cc2)n1)C1CCN(CC2CC2)CC1.Cl,–
165 to 168 °C,CN1CCC(N(C)c2cccc(NC(=O)c3ccc(F)cc3F)c2)CC1.Cl.Cl,–
84.7 °C,CCCN1CCC(N(C)c2cccc(NC(=O)c3ccc(F)cc3)n2)CC1.Cl,–
132.9 °C,CCN1CCC(N(C)c2cccc(NC(=O)c3ccc(F)cc3Cl)n2)CC1.Cl,–
302 °C (dec.),CN1CCC(N(C)c2cccc(NC(=O)c3c(F)cc(F)cc3F)n2)CC1.Cl (hydrate or solvate),–
96.7 °C,CC(C)n1cc(CCN2CCC(N(C)c3cccc(NC(=O)c4ccc(F)cc4Cl)n3)CC2)cn1.Cl,–
102 to 104 °C,CN1CCC(N(C)c2cccc(NC(=O)c3ccccc3OC(F)(F)F)n2)CC1.Cl (hydrate or solvate),–
258 to 260 °C,CN1CCC(N(C)c2cccc(NC(=O)C3CC3)n2)CC1.Cl (hydrate or solvate),–
152.1 °C,CN(c1cccc(NC(=O)c2ccc(F)cc2Cl)n1)C1CCNCC1.Cl,–
308 °C (dec.),CN1CCC(N(C)c2cccc(NC(=O)c3c(F)cccc3F)n2)CC1.Cl (hydrate or solvate),–
